Measured values published in US12459922B2 (Gilead Sciences, Inc., priority 2022, dated 2025).

What follows are molecules tested on endogenous cellular STAT1 (phosphorylated at Tyr701) in NCI-H1373 cells (assay: Phospho-STAT1 (Tyr701) LANCE Ultra TR-FRET Detection Assay). Conditions: Homo sapiens, NCI-H1373, 48 h, phospho-STAT1 (Tyr701) induction, read-out: NH1373 pSTAT1 EC50.
Assay type: cell-based

EC50	SMILES
27.6 nM	Nc1nc(-c2cc3ncn(CCC[C@@H](Nc4cn[nH]c(=O)c4C(F)(F)F)C4CC4)c(=O)c3cc2F)ncc1C(F)F [Example 462, (R)-7-(4-amino-5-(difluoromethyl)pyrimidin-2-yl)-3-(4-cyclopropyl-4-((6-oxo-5-(trifluoromethyl)-1,6-dihydropyridazin-4-yl)amino)butyl)-6-fluoroquinazolin-4(3H)-one]
9.47 nM	O=c1[nH]ncc(N[C@H]2CCC[C@@H]2CCn2cnc3cc(-c4ncc(C(F)(F)F)cn4)c(F)cc3c2=O)c1C(F)(F)F [Example 463, 6-fluoro-3-(2-((1R,2S)-2-((6-oxo-5-(trifluoromethyl)-1,6-dihydropyridazin-4-yl)amino)cyclopentyl)ethyl)-7-(5-(trifluoromethyl)pyrimidin-2-yl)quinazolin-4(3H)-one]
3.62 nM	Nc1nc(-c2cc3ncn(CC[C@H]4CCC[C@@H]4Nc4cn[nH]c(=O)c4C(F)(F)F)c(=O)c3cc2F)ncc1C(F)(F)F [Example 464, 7-(4-amino-5-(trifluoromethyl)pyrimidin-2-yl)-6-fluoro-3-(2-((1R,2S)-2-((6-oxo-5-(trifluoromethyl)-1,6-dihydropyridazin-4-yl)amino)cvclopentyl)ethyl)quinazolin-4(3H)-one]
18 nM	Nc1nc(-c2cc3ncn(CC[C@H]4CCC[C@@H]4Nc4cn[nH]c(=O)c4C(F)(F)F)c(=O)c3cc2F)cnc1C(F)(F)F [Example 465, 7-(6-amino-5-(trifluoromethyl)pyrazin-2-yl)-6-fluoro-3-(2-((1R,2S)-2-((6-oxo-5-(trifluoromethyl)-1,6-dihydropyridazin-4-yl)amino)cyclopentyl)ethyl)quinazolin-4(3H)-one]
6.52 nM	O=c1[nH]ncc(N[C@H](CCCn2ccc3cc(-c4ncc(C(F)(F)F)cn4)c(F)cc3c2=O)CCOC(F)F)c1C(F)(F)F [Example 466, 2-[(4R)-6-(difluoromethoxy)-4-[[6-oxo-5-(trifluoromethyl)-1H-pyridazin-4-yl]amino]hexyl]-7-fluoro-6-[5-(trifluoromethyl)pyrimidin-2-yl]isoquinolin-1-one]
4.13 nM	Nc1nc(-c2cc3ccn(CCC[C@H](CCOC(F)F)Nc4cn[nH]c(=O)c4C(F)(F)F)c(=O)c3cc2F)ncc1C(F)(F)F [Example 467, 6-[4-amino-5-(trifluoromethyl)pyrimidin-2-yl]-2-[(4R)-6-(difluoromethoxy)-4-[[6-oxo-5-(trifluoromethyl)-1H-pyridazin-4-yl]amino]hexyl]-7-fluoro-isoquinolin-1-one]
42.5 nM	O=c1[nH]ncc(N[C@H](CCCn2cnc3cc(-c4ncc(C(F)F)cn4)c(F)cc3c2=O)C2CC2)c1C(F)(F)F [Example 468, 3-[(4R)-4-cyclopropyl-4-[[6-oxo-5-(trifluoromethyl)-1H-pyridazin-4-yl]amino]butyl]-7-[5-(difluoromethyl)pyrimidin-2-yl]-6-fluoro-quinazolin-4-one]
14.5 nM	Nc1nc(-c2cc3ncn(CCC[C@@H](Nc4cn[nH]c(=O)c4C(F)(F)F)C4CC4)c(=O)c3cc2F)ncc1C(F)(F)F [Example 469, 7-[4-amino-5-(trifluoromethyl)pyrimidin-2-yl]-3-[(4R)-4-cyclopropyl-4-[[6-oxo-5-(trifluoromethyl)-1H-pyridazin-4-yl]amino]butyl]-6-fluoro-quinazolin-4-one]
39.3 nM	O=c1[nH]ncc(N[C@H](CCCn2cnc3cc(-c4ncc(Cl)cn4)c(F)cc3c2=O)C2CC2)c1C(F)(F)F [Example 470, 7-(5-chloropyrimidin-2-yl)-3-[(4R)-4-cyclopropyl-4-[[6-oxo-5-(trifluoromethyl)-1H-pyridazin-4-yl]amino]butyl]-6-fluoro-quinazolin-4-one]
23.2 nM	O=c1[nH]ncc(N[C@H](CCCn2cnc3cc(-c4ncc(C(F)(F)F)cn4)c(F)cc3c2=O)C2CC2)c1C(F)(F)F [Example 471, 3-[(4R)-4-cyclopropyl-4-[[6-oxo-5-(trifluoromethyl)-1H-pyridazin-4-yl]amino]butyl]-6-fluoro-7-[5-(trifluoromethyl)pyrimidin-2-yl]quinazolin-4-one]
51.6 nM	Nc1nc(-c2cc3ncn(CCC[C@@H](Nc4cn[nH]c(=O)c4C(F)(F)F)C4CC4)c(=O)c3cc2F)ncc1OC(F)F [Example 472, 7-[4-amino-5-(difluoromethoxy)pyrimidin-2-yl]-3-[(4R)-4-cyclopropyl-4-[[6-oxo-5-(trifluoromethyl)-1H-pyridazin-4-yl]amino]butyl]-6-fluoro-quinazolin-4-one]
969 nM	CN(C)C[C@@H](CCCn1ccc2cc(-c3ncc(C(F)(F)F)cn3)c(F)cc2c1=O)Nc1cn[nH]c(=O)c1C(F)(F)F [Example 473, 2-[(4R)-5-(dimethylamino)-4-[[6-oxo-5-(trifluoromethyl)-1H-pyridazin-4-yl]amino]pentyl]-7-fluoro-6-[5-(trifluoromethyl)pyrimidin-2-yl]isoquinolin-1-one]
14.8 nM	Cc1nnc([C@@H](CCCn2ccc3cc(-c4ncc(C(F)(F)F)cn4)c(F)c(F)c3c2=O)Nc2cn[nH]c(=O)c2C(F)(F)F)o1 [Example 474, 7,8-difluoro-2-[(4R)-4-(5-methyl-1,3,4-oxadiazol-2-yl)-4-[[6-oxo-5-(trifluoromethyl)-1H-pyridazin-4-yl]amino]butyl]-6-[5-(trifluoromethyl)pyrimidin-2-yl]isoquinolin-1-one]
10.6 nM	O=c1[nH]ncc(N[C@H](CCCn2ccc3cc(-c4ncc(C(F)(F)F)cn4)c(F)c(F)c3c2=O)c2nnc(C3CC3)o2)c1C(F)(F)F [Example 475, 2-[(4R)-4-(5-cyclopropyl-1,3,4-oxadiazol-2-yl)-4-[[6-oxo-5-(trifluoromethyl)-1H-pyridazin-4-yl]amino]butyl]-7,8-difluoro-6-[5-(trifluoromethyl)pyrimidin-2-yl]isoquinolin-1-one]
20.3 nM	O=c1[nH]ncc(N[C@H](CCCn2ccc3cc(-c4ncc(C(F)(F)F)cn4)c(F)cc3c2=O)c2nnc(C3CC3)o2)c1C(F)(F)F [Example 476, 2-[(4R)-4-(5-cyclopropyl-1,3,4-oxadiazol-2-yl)-4-[[6-oxo-5-(trifluoromethyl)-1H-pyridazin-4-yl]amino]butyl]-7-fluoro-6-[5-(trifluoromethyl)pyrimidin-2-yl]isoquinolin-1-one]
18.4 nM	O=c1[nH]ncc(N[C@H](CCCn2ccc3cc(-c4ncc(C(F)(F)F)cn4)c(F)cc3c2=O)c2nnc(C(F)F)o2)c1C(F)(F)F [Example 477, 2-[(4R)-4-[5-(difluoromethyl)-1,3,4-oxadiazol-2-yl]-4-[[6-oxo-5-(trifluoromethyl)-1H-pyridazin-4-yl]amino]butyl]-7-fluoro-6-[5-(trifluoromethyl)pyrimidin-2-yl]isoquinolin-1-one]
5.25 nM	C[C@@H](CC(O)Cn1ccc2cc(-c3ncc(C(F)(F)F)cn3)c(F)cc2c1=O)Nc1cn[nH]c(=O)c1C(F)(F)F (stereo partly drawn) [Example 478, 7-fluoro-2-[(4S)-2-hydroxy-4-[[6-oxo-5-(trifluoromethyl)-1H-pyridazin-4-yl]amino]pentyl]-6-[5-(trifluoromethyl)pyrimidin-2-yl]isoquinolin-1-one]
3.24 nM	O=c1[nH]ncc(N[C@H]2CCC[C@@H](Cn3cc(F)c4cc(-c5ncc(C(F)(F)F)cn5)c(F)cc4c3=O)C2)c1C(F)(F)F [Example 481, 4,7-difluoro-2-(((1R,3S)-3-((6-oxo-5-(trifluoromethyl)-1,6-dihydropyridazin-4-yl)amino)cyclohexyl)methyl)-6-(5-(trifluoromethyl)pyrimidin-2-yl)isoquinolin-1(2H)-one]
1.94 nM	O=c1[nH]ncc(N[C@H]2CCC[C@@H](Cn3cc(F)c4cc(-c5ncc(C(F)F)cn5)c(F)cc4c3=O)C2)c1C(F)(F)F [Example 482, 6-(5-(difluoromethyl)pyrimidin-2-yl)-4,7-difluoro-2-(((1R,3S)-3-((6-oxo-5-(trifluoromethyl)-1,6-dihydropyridazin-4-yl)amino)cyclohexyl)methyl)isoquinolin-1(2H)-one]
4.71 nM	N#Cc1cn(C[C@@H]2CCC[C@H](Nc3cn[nH]c(=O)c3C(F)(F)F)C2)c(=O)c2cc(F)c(-c3ncc(C(F)(F)F)cn3)cc12 [Example 483, 7-fluoro-1-oxo-2-(((1R,3S)-3-((6-oxo-5-(trifluoromethyl)-1,6-dihydropyridazin-4-yl)amino)cyclohexyl)methyl)-6-(5-(trifluoromethyl)pyrimidin-2-yl)-1,2-dihydroisoquinoline-4-carbonitrile]
5.46 nM	Cc1cn(C[C@@H]2CCC[C@H](Nc3cn[nH]c(=O)c3C(F)(F)F)C2)c(=O)c2cc(F)c(-c3ncc(C(F)(F)F)cn3)cc12 [Example 485, 7-fluoro-4-methyl-2-(((1R,3S)-3-((6-oxo-5-(trifluoromethyl)-1,6-dihydropyridazin-4-yl)amino)cyclohexyl)methyl)-6-(5-(trifluoromethyl)pyrimidin-2-yl)isoquinolin-1(2H)-one]
95.8 nM	Nc1cn(C[C@@H]2CCC[C@H](Nc3cn[nH]c(=O)c3C(F)(F)F)C2)c(=O)c2cc(F)c(-c3ncc(C(F)(F)F)cn3)cc12 [Example 486, 4-amino-7-fluoro-2-(((1R,3S)-3-((6-oxo-5-(trifluoromethyl)-1,6-dihydropyridazin-4-yl)amino)cyclohexyl)methyl)-6-(5-(trifluoromethyl)pyrimidin-2-yl)isoquinolin-1(2H)-one]
0.51 nM	O=c1[nH]ncc(N[C@H]2CCC[C@@H](Cn3cnc4cc(-c5nc6ccccn6n5)c(F)cc4c3=O)C2)c1C(F)(F)F [Example 487]
0.51 nM	O=c1[nH]ncc(N[C@H]2CCC[C@@H](Cn3ccc4cc(-c5nc6ccccn6n5)c(F)cc4c3=O)C2)c1C(F)(F)F [Example 488, 6-([1,2,4]triazolo[1,5-a]pyridin-2-yl)-7-fluoro-2-(((1R,3S)-3-((6-oxo-5-(trifluoromethyl)-1,6-dihydropyridazin-4-yl)amino)cyclohexyl)methyl)isoquinolin-1(2H)-one]
0.51 nM	O=c1[nH]ncc(N[C@H](CCCn2ccc3cc(-c4nc5ccccn5n4)c(F)cc3c2=O)COC(F)F)c1C(F)(F)F [Example 489, (R)-6-([1,2,4]triazolo[1,5-a]pyridin-2-yl)-2-(5-(difluoromethoxy)-4-((6-oxo-5-(trifluoromethyl)-1,6-dihydropyridazin-4-yl)amino)pentyl)-7-fluoroisoquinolin-1(2H)-one]
